Measurements published in patent US11725012B2, “Imidazo[1,5-a]pyrazine derivatives as PI3K δ inhibitors” (priority 2016, dated 2023).
Read-outs that look alike come from different tables or passages of the source.

Legend:
Assay type in all cases: biochemical
PI3K (p110γ) = PI3K (p110γ) (Homo sapiens, UniProt P48736); test: PI3Kγ ADP-Glo kinase assay
[1] = biological target: recombinant PI3K (p110α/p85α) (Homo sapiens, UniProt P42336); test: PI3Kα ADP-Glo kinase assay
[2] = biological target: recombinant PI3K (p110δ/p85α) (Homo sapiens, UniProt O00329); test: PI3Kδ ADP-Glo kinase assay
Protocol: Compounds disclosed herein were tested for inhibition of PI3Kδ kinase activity using commercial ADP-Glo™ Kinase Assay (Promega Corporation) and following the manufacture's instruction. Briefly, recombinant PI3K (p110δ/p85α) enzyme, lipid kinase substrate and a serial dilution of compounds disclosed herein were incubated for 0.5 hr at room temperature. ATP was added to initiate the kinase reaction. After incubation for 1 hr at room temperature, ADP-Glo™ reagent was added to terminate the kinase reaction and deplete the remaining ATP. After incubation for 1 hr at room temperature, kinase detection reagent was added to simultaneously convert ADP to ATP and allow the newly synthesized ATP to be measured using a luciferase/luciferin reaction. After incubation for 0.5 hr at room temperature, the luminescence generated was measured on a PHERAstar FS plate reader (BMG LABTECH), The residual enzyme activity in presence of increasing concentrations of compounds was calculated based on the luminescence. The IC50 for each compound was derived from fitting the data to the four-parameter logistic equation by Graphpad Prism software.

PI3K (p110β/p85α) = PI3K (p110β/p85α) (Homo sapiens, UniProt P42338); test: PI3Kβ ADP-Glo kinase assay
[3] = read-out: PI3Kγ Enzyme activity IC50
[4] = read-out: PI3Kα Enzyme activity IC50
[5] = read-out: PI3Kδ Enzyme activity IC50
[6] = read-out: PI3Kβ Enzyme activity IC50

Sequence of PI3K (p110β/p85α) (P42338 whole entry): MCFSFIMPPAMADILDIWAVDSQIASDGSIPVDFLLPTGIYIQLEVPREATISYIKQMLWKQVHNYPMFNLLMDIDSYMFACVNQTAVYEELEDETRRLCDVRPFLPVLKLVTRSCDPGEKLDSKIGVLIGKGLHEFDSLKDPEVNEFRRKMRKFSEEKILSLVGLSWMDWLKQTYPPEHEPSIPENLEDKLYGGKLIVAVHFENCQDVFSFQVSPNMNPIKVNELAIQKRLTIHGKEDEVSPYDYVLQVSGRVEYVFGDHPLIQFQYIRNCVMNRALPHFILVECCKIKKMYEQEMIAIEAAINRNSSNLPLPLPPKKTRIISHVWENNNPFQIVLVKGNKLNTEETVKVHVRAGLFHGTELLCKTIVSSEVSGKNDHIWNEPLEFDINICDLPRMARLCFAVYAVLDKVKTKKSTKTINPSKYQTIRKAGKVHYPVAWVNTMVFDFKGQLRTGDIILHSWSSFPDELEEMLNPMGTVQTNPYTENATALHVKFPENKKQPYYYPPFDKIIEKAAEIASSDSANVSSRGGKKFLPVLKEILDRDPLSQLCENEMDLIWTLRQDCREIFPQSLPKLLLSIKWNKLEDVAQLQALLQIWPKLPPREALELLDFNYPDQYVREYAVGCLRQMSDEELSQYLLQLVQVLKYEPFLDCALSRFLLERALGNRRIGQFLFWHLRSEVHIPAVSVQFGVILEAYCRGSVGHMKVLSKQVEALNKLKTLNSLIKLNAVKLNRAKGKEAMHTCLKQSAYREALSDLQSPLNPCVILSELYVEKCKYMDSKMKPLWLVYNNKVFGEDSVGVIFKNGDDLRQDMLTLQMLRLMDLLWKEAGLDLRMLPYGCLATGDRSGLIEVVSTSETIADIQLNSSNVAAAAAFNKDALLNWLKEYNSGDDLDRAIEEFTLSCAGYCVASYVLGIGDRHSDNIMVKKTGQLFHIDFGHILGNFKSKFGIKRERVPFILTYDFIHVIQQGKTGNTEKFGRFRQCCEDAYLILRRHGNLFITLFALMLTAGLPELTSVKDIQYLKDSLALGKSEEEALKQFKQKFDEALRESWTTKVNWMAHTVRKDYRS
Sequence of PI3K (p110β/p85α) (P27986 whole entry partner): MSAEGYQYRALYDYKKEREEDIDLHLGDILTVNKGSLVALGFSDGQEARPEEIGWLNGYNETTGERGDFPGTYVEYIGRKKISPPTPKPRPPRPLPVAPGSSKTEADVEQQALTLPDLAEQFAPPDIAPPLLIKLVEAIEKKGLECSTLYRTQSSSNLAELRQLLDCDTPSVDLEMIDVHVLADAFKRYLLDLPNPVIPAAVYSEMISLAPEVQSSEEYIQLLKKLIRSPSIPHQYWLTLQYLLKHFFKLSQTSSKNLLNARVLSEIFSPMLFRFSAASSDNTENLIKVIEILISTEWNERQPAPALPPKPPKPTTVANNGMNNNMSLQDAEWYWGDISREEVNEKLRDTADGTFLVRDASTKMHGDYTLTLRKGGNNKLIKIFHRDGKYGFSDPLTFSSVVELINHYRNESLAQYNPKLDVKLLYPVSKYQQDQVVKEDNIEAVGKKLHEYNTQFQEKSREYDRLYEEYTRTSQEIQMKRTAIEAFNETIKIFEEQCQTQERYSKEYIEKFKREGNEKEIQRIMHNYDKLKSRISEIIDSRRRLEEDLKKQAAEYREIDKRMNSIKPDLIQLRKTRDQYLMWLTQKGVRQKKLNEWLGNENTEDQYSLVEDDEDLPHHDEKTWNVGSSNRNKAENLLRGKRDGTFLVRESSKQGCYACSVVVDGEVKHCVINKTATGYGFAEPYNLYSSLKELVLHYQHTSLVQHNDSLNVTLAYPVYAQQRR
Sequence of PI3K (p110γ) (P48736 whole entry): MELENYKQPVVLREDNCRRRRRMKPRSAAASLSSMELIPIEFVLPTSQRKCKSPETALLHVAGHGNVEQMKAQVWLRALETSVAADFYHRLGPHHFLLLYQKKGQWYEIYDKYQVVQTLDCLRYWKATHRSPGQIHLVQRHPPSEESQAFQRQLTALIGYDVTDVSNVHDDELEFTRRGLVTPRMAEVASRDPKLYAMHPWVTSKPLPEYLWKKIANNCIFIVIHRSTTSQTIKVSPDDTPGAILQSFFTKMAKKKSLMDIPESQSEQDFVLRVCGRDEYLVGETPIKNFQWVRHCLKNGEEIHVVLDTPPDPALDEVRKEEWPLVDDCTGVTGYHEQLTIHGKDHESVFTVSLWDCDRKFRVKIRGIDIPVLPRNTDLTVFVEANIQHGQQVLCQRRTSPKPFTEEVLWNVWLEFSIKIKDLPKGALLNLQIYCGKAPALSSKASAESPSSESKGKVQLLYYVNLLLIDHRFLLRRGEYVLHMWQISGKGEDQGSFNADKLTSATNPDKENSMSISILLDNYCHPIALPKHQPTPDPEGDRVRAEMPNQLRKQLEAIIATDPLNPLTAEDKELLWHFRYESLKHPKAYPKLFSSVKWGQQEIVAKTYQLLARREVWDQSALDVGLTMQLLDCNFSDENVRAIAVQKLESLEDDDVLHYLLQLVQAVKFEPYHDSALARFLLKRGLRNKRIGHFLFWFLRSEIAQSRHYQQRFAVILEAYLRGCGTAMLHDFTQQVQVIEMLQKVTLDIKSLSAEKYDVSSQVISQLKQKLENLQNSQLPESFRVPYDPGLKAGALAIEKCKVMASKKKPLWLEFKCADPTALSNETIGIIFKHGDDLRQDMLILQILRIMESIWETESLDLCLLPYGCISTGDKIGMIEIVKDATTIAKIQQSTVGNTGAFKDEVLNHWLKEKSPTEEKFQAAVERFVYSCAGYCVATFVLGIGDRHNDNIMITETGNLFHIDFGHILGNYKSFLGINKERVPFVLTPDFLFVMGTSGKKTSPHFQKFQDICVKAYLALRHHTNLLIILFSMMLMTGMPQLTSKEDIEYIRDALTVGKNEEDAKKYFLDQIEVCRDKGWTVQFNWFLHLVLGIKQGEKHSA
Sequence of recombinant PI3K (p110α/p85α) (P42336 whole entry): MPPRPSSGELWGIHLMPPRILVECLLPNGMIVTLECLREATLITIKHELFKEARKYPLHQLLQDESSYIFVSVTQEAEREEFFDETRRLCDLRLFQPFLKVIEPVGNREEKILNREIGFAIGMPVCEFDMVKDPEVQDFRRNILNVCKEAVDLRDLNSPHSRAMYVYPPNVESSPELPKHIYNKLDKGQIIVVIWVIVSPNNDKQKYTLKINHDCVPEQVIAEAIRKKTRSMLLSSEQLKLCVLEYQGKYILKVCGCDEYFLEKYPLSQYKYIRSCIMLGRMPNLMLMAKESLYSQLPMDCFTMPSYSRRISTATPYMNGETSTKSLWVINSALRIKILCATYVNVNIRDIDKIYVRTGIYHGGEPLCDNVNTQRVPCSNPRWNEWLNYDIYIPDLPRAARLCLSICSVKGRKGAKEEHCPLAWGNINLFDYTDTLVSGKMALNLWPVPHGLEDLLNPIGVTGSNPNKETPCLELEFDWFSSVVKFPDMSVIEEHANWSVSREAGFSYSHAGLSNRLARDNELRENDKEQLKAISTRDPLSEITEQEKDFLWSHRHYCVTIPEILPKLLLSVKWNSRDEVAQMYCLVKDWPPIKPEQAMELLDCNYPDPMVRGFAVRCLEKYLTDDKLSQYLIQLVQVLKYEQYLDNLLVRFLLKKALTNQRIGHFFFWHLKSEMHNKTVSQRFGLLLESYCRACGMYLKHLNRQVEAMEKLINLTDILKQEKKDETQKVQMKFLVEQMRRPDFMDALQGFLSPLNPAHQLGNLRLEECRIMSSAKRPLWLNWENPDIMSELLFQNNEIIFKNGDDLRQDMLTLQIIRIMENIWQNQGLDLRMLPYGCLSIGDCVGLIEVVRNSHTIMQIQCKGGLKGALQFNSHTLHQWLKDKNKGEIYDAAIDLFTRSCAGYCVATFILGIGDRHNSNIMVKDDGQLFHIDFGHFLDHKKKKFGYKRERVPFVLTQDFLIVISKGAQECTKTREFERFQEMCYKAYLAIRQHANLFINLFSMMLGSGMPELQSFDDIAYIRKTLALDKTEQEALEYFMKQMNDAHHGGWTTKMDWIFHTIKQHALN
Sequence of recombinant PI3K (p110α/p85α) (P27986 whole entry partner): as the sequence (P27986 whole entry partner) above
Sequence of recombinant PI3K (p110δ/p85α) (O00329 whole entry): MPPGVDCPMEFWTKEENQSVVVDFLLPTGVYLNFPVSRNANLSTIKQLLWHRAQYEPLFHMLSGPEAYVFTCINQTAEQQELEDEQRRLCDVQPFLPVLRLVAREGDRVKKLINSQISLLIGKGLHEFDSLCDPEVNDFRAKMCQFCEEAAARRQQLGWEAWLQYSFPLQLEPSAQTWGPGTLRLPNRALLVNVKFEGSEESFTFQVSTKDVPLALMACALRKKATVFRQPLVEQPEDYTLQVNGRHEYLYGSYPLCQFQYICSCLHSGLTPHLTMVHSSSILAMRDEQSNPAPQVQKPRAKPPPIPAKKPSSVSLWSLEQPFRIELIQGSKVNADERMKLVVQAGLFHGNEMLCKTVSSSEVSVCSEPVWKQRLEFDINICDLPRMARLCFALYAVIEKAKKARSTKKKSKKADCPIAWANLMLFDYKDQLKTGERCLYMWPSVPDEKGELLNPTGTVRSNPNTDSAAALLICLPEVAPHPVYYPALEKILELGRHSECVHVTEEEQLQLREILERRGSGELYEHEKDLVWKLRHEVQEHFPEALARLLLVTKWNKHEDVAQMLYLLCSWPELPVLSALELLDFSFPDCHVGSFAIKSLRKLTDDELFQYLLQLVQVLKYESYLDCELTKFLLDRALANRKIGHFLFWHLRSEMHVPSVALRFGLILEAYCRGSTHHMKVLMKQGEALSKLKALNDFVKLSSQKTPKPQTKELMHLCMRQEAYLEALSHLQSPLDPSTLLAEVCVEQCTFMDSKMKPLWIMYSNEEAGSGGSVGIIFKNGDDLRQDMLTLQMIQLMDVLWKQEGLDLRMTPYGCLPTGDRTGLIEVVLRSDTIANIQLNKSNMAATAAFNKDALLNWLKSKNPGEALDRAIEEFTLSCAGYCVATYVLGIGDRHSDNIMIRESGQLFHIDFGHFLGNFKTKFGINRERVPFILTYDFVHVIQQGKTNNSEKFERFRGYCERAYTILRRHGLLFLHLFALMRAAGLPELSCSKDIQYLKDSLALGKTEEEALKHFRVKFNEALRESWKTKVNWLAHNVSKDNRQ
Sequence of recombinant PI3K (p110δ/p85α) (P27986 whole entry partner): as the sequence (P27986 whole entry partner) above

Row | SMILES | IC50 (PI3K (p110γ); [3]) [µM] | IC50 [1, 4] [µM] | IC50 [2, 5] [µM] | IC50 (PI3K (p110β/p85α); [6]) [µM] | IC50 (PI3K (p110γ); PI3Kγ Enzyme activity IC50) [µM] | IC50 ([1]; PI3Kα Enzyme activity IC50) [µM] | IC50 ([2]; PI3Kδ Enzyme activity IC50) [µM] | IC50 (PI3K (p110β/p85α); PI3Kβ Enzyme activity IC50) [µM] | inhibition at 0.5 µM (PI3K (p110γ); read-out: PI3Kγ max inhibition (%) at 0.5 μM) [%] | inhibition at 0.5 µM ([1]; read-out: PI3Kα max inhibition (%) at 0.5 μM) [%] | inhibition at 0.5 µM (PI3K (p110β/p85α); read-out: PI3Kβ max inhibition (%) at 0.5 μM) [%]
1 | CC(C)Oc1c(C(C)c2nc(Cl)c3c(N)nccn23)cc(Cl)c(F)c1-c1ccc(C(=O)O)nc1 (stereo not drawn) [Compound 18, 5-(3-(1-(8-amino-1-chloroimidazo[1,5-a]pyrazin-3-yl)ethyl)-5-chloro-6-fluoro-2-isopropoxyphenyl)picolinic Acid] | 0.34 | 7.1 | 0.0013 | 1.1 | – | – | – | – | – | – | –
2 | CC(C)Oc1c([C@H](C)c2nc(Cl)c3c(N)nccn23)cc(Cl)c(F)c1-c1ccc(C(=O)O)nc1 [Compound 18A] | 0.16 | 4.6 | 0.00056 | 0.19 | – | – | – | – | – | – | –
3 | COc1c(C(C)c2nc(Br)c3c(N)nccn23)cc(Cl)c(C)c1-c1ccc(C)nc1 (stereo not drawn) [Compound 19, 1-bromo-3-(1-(5-chloro-2-methoxy-4-methyl-3-(6-methylpyridin-3-yl)phenyl)ethyl) imidazo[1,5-a]pyrazin-8-amine] | – | – | – | – | 0.21 | 0.58 | 0.0013 | 0.18 | – | – | –
4 | COc1ccc(-c2c(C)c(Cl)cc(C(C)c3nc(Br)c4c(N)nccn34)c2OC)cn1 (stereo not drawn) [Compound 20, 1-bromo-3-(1-(5-chloro-2-methoxy-3-(6-methoxypyridin-3-yl)-4-methylphenyl)ethyl)imidazo[1,5-a]pyrazin-8-amine] | 0.74 | 2.3 | 0.0032 | 0.93 | – | – | – | – | – | – | –
5 | COc1c(C(C)c2nc(Br)c3c(N)nccn23)cc(Cl)c(C)c1-c1ccc(Cl)nc1 (stereo not drawn) [Compound 22, 1-bromo-3-(1-(5-chloro-3-(6-chloropyridin-3-yl)-2-methoxy-4-methylphenyl)ethyl) imidazo[1,5-a]pyrazin-8-amine] | 0.76 | 1.4 | 0.0015 | 0.39 | – | – | – | – | – | – | –
6 | COc1c(C(C)c2nc(Br)c3c(N)nccn23)cc(Cl)c(C)c1-c1ccc(N2CCOCC2)nc1 (stereo not drawn) [Compound 23, 1-bromo-3-(1-(5-chloro-2-methoxy-4-methyl-3-(6-morpholinopyridin-3-yl)phenyl)ethyl)imidazo[1,5-a]pyrazin-8-amine] | – | – | 0.015 | – | – | – | – | – | -19 | 16 | 12
7 | CCOc1c(C(C)c2nc(Br)c3c(N)nccn23)cc(Cl)c(C)c1-c1ccc(C(F)(F)F)nc1 (stereo not drawn) [Compound 24, 1-bromo-3-(1-(5-chloro-2-ethoxy-4-methyl-3-(6-(trifluoromethyl)pyridin-3-yl)phenyl)ethyl)imidazo[1,5-a]pyrazin-8-amine] | 2.1 | 4 | 0.0029 | 1.6 | – | – | – | – | – | – | –
8 | CCOc1c(C(C)c2nc(Cl)c3c(N)nccn23)cc(Cl)c(C)c1-c1ccc(C(F)(F)F)nc1 (stereo not drawn) [Compound 25, 1-chloro-3-(1-(5-chloro-2-ethoxy-4-methyl-3-(6-(trifluoromethyl)pyridin-3-yl)phenyl)ethyl)imidazo[1,5-a]pyrazin-8-amine] | 1.4 | 3 | 0.0026 | 2.6 | – | – | – | – | – | – | –
9 | CCOc1c(C(C)c2nc(Br)c3c(N)nccn23)cc(Cl)c(C)c1-c1ccc(Cl)nc1 (stereo not drawn) [Compound 26, 1-bromo-3-(1-(5-chloro-3-(6-chloropyridin-3-yl)-2-ethoxy-4-methylphenyl)ethyl) imidazo[1,5-a]pyrazin-8-amine] | 0.5 | 1.5 | 0.0014 | 0.33 | – | – | – | – | – | – | –
10 | CCOc1c(C(C)c2nc(Cl)c3c(N)nccn23)cc(Cl)c(C)c1-c1ccc(Cl)nc1 (stereo not drawn) [Compound 27, 1-chloro-3-(1-(5-chloro-3-(6-chloropyridin-3-yl)-2-ethoxy-4-methylphenyl)ethyl)imidazo[1,5-a]pyrazin-8-amine] | 1.4 | 3.3 | 0.0025 | 1.8 | – | – | – | – | – | – | –
11 | CCOc1c([C@H](C)c2nc(Cl)c3c(N)nccn23)cc(Cl)c(C)c1-c1ccc(Cl)nc1 [Compound 27A] | 1 | 2.2 | 0.0011 | 0.4 | – | – | – | – | – | – | –
12 | CCOc1c(C(C)c2nc(Br)c3c(N)nccn23)cc(Cl)c(C)c1-c1ccc(OC)nc1 (stereo not drawn) [Compound 28, 1-bromo-3-(l-(5-chloro-2-ethoxy-3-(6-methoxypyridin-3-yl)-4-methylphenyl)ethyl)imidazo[1,5-a]pyrazin-8-amine] | – | – | – | – | 0.74 | 2.3 | 0.0032 | 0.93 | – | – | –
13 | CCOc1c(C(C)c2nc(Cl)c3c(N)nccn23)cc(Cl)c(C)c1-c1ccc(OC)nc1 (stereo not drawn) [Compound 29, 1-chloro-3-(1-(5-chloro-2-ethoxy-3-(6-methoxypyridin-3-yl)-4-methylphenyl)ethyl)imidazo[1,5-a]pyrazin-8-amine] | 1.1 | 2.9 | 0.0021 | 0.82 | – | – | – | – | – | – | –
14 | CCOc1c(C(C)c2nc(Br)c3c(N)nccn23)cc(Cl)c(C)c1-c1ccc(OCCOC)nc1 (stereo not drawn) [Compound 30, 1-bromo-3-(1-(5-chloro-2-ethoxy-3-(6-(2-methoxyethoxy)pyridin-3-yl)-4-methylphenyl)ethyl)imidazo[1,5-a]pyrazin-8-amine] | 0.45 | 1.8 | 0.0023 | 0.53 | – | – | – | – | – | – | –
15 | CCOc1c(C(C)c2nc(Cl)c3c(N)nccn23)cc(Cl)c(C)c1-c1ccc(OCCOC)nc1 (stereo not drawn) [Compound 31, 1-chloro-3-(1-(5-chloro-2-ethoxy-3-(6-(2-methoxyethoxy)pyridin-3-yl)-4-methylphenyl)ethyl)imidazo[1,5-a]pyrazin-8-amine] | 0.43 | 2.2 | 0.0025 | 0.62 | – | – | – | – | – | – | –
16 | CCOc1c(C(C)c2nc(C)c3c(N)nccn23)cc(Cl)c(C)c1-c1ccc(C(F)(F)F)nc1 (stereo not drawn) [Compound 32, 3-(1-(5-chloro-2-ethoxy-4-methyl-3-(6-(trifluoromethyl)pyridin-3-yl)phenyl)ethyl)-1-methylimidazo[1,5-a]pyrazin-8-amine] | 2.1 | 7.4 | 0.0085 | 3.5 | – | – | – | – | – | – | –
17 | CCOc1c(C(C)c2nc(Cl)c3c(N)nccn23)cc(F)c(Cl)c1-c1ccc(C(F)(F)F)nc1 (stereo not drawn) [Compound 33, 1-chloro-3-(1-(4-chloro-2-ethoxy-5-fluoro-3-(6-(trifluoromethyl)pyridin-3-yl)phenyl)ethyl)imidazo[1,5-a]pyrazin-8-amine] | 0.75 | 1.8 | 0.0057 | 1.8 | – | – | – | – | – | – | –
18 | CC(C)Oc1c(C(C)c2nc(Cl)c3c(N)nccn23)cc(F)c(Cl)c1-c1ccc(C(F)(F)F)nc1 (stereo not drawn) [Compound 35, 1-chloro-3-(1-(4-chloro-5-fluoro-2-isopropoxy-3-(6-(trifluoromethyl)pyridin-3-yl)phenyl)ethyl)imidazo[1,5-a]pyrazin-8-amine] | 5.9 | 23 | 0.011 | 79 | – | – | – | – | – | – | –
19 | CCOc1c(C(C)c2nc(Cl)c3c(N)nccn23)cc(Cl)c(Cl)c1-c1ccc(C(F)(F)F)nc1 (stereo not drawn) [Compound 36, 1-chloro-3-(1-(4,5-dichloro-2-ethoxy-3-(6-(trifluoromethyl)pyridin-3-yl)phenyl)ethyl)imidazo[1,5-a]pyrazin-8-amine] | 0.73 | 1.3 | 0.0022 | 0.58 | – | – | – | – | – | – | –
20 | CC(C)Oc1c(C(C)c2nc(Cl)c3c(N)nccn23)cc(Cl)c(Cl)c1-c1ccc(C(F)(F)F)nc1 (stereo not drawn) [Compound 37, 1-chloro-3-(1-(4,5-dichloro-2-isopropoxy-3-(6-(trifluoromethyl)pyridin-3-yl)phenyl)ethyl)imidazo[1,5-a]pyrazin-amine] | 0.9 | 11 | 0.0042 | 1.9 | – | – | – | – | – | – | –
21 | Cc1c(Cl)cc(C(C)c2nc(Br)c3c(N)nccn23)c(OC(C)C)c1-c1ccc(C(F)(F)F)nc1 (stereo not drawn) [Compound 38, 1-bromo-3-(1-(5-chloro-2-isopropoxy-4-methyl-3-(6-(trifluoromethyl)pyridin-3-yl)phenyl)ethyl)imidazo[1,5-a]pyrazin-8-amine] | 2.8 | > 200 | 0.019 | 30 | – | – | – | – | – | – | –
22 | Cc1c(Cl)cc([C@H](C)c2nc(Br)c3c(N)nccn23)c(OC(C)C)c1-c1ccc(C(F)(F)F)nc1 [Compound 38A] | 0.74 | > 200 | 0.0054 | 28 | – | – | – | – | – | – | –
23 | CCOc1c(C(C)c2nc(Br)c3c(N)nccn23)cc(Cl)c(C)c1-c1cncc(C(F)(F)F)c1 (stereo not drawn) [Compound 39, 1-bromo-3-(1-(5-chloro-2-ethoxy-4-methyl-3-(5-(trifluoromethyl)pyridin-3-yl)phenyl)ethyl)imidazo[1,5-a]pyrazin-8-amine] | 1.6 | 3.2 | 0.0057 | 2 | – | – | – | – | – | – | –
24 | CC(C)Oc1c(C(C)c2nc(Cl)c3c(N)nccn23)cc(Cl)c(F)c1-c1ccc(C(F)(F)F)nc1 (stereo not drawn) [Compound 40, 1-chloro-3-(1-(5-chloro-4-fluoro-2-isopropoxy-3-(6-(trifluoromethyl)pyridin-3-yl)phenyl)ethyl)imidazo[1,5-a]pyrazin-8-amine] | > 50 | > 50 | 0.0055 | > 50 | – | – | – | – | – | – | –
